According to US5834415A, “Naphthalene boronic acids” (Novo Nordisk A/S, priority 1994, dated 1998):
Like-named read-outs stand apart in the source and are kept apart here.

Experiments:
subtilisin = details: Keller et al, Biochem. Biophys. Res. Com. 176, 1991, pp. 401-405; cited from earlier work
Alcalase = biological target: T1, Alcalase (Bacillus licheniformis, UniProt P00780); assay: Determination of Ki, inhibition of Alcalase; type: biochemical
T1 construct: purchased Novo Nordisk A/S
T1 sequence (P00780 106-379): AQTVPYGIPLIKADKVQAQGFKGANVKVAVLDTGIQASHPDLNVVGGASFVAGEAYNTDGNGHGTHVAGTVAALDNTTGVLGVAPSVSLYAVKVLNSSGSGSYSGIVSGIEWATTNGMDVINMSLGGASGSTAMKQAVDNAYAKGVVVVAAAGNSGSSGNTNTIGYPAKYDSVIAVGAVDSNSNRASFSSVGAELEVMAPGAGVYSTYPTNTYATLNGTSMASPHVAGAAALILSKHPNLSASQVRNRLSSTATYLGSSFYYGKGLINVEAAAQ
Source text: (§1) c) Determination of Ki : The inhibition constant Ki may be determined by using standard methods, for reference see Keller et al, Biochem. Biophys. Res. Com. 176, 1991, pp.401-405; J. Bieth in Bayer-Symposium "Proteinase Inhibitors", pp. 463-469, Springer-Verlag, 1974 and Lone Kierstein Hansen in "Determination of Specific Activities of Selected Deterrent Proteases using Protease Activity, Molecular Weights, Kinetic Parameters and Inhibition Kinetics", PhD-report, Novo Nordisk A/S and University of Copenhagen, 1991.
(§2) The inhibition constant Ki for the inhibition of Alcalase and Savinase was determined using standard methods under the following conditions:
(§3) Substrate: Succinyl-Alanine-Alanine-Proline-Phenylalanine-paranitro-anilide=SAAPFpNA (Sigma S-7388).
(§4) Buffer: 0.1M Tris-HCl pH 8.6; 25° C.
(§5) Enzyme concentration in assay:
(§6) The initial rate of substrate hydrolysis was determined at nine substrate concentrations in the range of 0.01 to 2 mM using a Cobas Fara automated spectrophotometer. The kinetic parameters Vmax and Km were determined using ENZFITTER (a non-linear regression data analysis program). kcat was calculated from the equation Vmax =kcat ×[Eo ]. The concentration of active enzyme [Eo ] was determined by active site titration using tight-binding protein proteinase inhibitors. The inhibition constant Ki was calculated from plots of Km /kcat as a function of the concentration of inhibitor. The inhibitors were assumed to be 100% pure and the molar concentrations were determined using weighing numbers and molecular weights.

Savinase = biological target: T2, Savinase (Lederbergia lenta, UniProt P29600); assay: Determination of Ki, inhibition of Savinase; type: biochemical, Bacillus
T2 construct: purchased Novo Nordisk A/S
T2 sequence (P29600 1-269): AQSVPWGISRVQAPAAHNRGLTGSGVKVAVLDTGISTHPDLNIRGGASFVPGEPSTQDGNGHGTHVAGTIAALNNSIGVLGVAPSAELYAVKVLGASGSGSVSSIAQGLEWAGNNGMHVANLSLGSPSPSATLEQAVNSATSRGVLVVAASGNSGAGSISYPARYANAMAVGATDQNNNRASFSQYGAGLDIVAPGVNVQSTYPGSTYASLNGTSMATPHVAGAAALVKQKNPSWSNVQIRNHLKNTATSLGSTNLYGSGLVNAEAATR
Source text: as §1, §2, §3, §4, §5, §6

proteolytic enzymes = details: prior art; WO 92/19707 for acetamidobenzene boronic acid; cited from earlier work
[1] = substrate SAAPFpNA, 0.1M Tris-HCl pH 8.6, 25° C., Alcalase 1×10^-10 - 3×10^-10 M, read-out: Ki Alcalase
[2] = substrate SAAPFpNA, 0.1M Tris-HCl pH 8.6, 25° C., Savinase 1×10^-10 - 3×10^-10 M, read-out: Ki Savinase

Ki (Alcalase; [1]) [µM] | Ki (Savinase; [2]) [µM] | Compound | also measured
– | – | OB(O)c1cc(Cl)cc(Cl)c1 [3,5-dichlorophenylboronic acid] | capacity as subtilisin inhibitor (subtilisin): particularly effective
500 | 600 | OB(O)c1ccc2cc(O)ccc2c1 [6-hydroxynaphthalene-2-boronic acid] | –
– | – | OB(O)O [Boric acid] | Ki (Alcalase): 30000 µM; Ki (Savinase): 20000 µM; inhibition of proteolytic enzymes (proteolytic enzymes): reversibly inhibit proteolytic enzymes
500 | 900 | OB(O)c1cccc2ccccc12 [Naphthalene-1-boronic acid, Naphthalene-1-Boronic Acid] | –
400 | 300 | OB(O)c1ccc2ccccc2c1 [Naphthalene-2-boronic acid, Naphthalene-2-Boronic Acid] | –
– | – | CB(O)O [methylboronic acid] | capacity as subtilisin inhibitor (subtilisin): poorest inhibitor
– | – | acetamidobenzene boronic acid | inhibition of proteolytic enzymes (proteolytic enzymes): superior inhibitor of proteolytic enzymes
